Assay results as given in US4333930A, “Orthoarylideneaminophenethylamines and pharmaceutical compositions” (priority 1980, dated 1982).
Read-outs that look alike come from different tables or passages of the source.

Assays:
[1] = system: number of escapes the animal made in 5 minutes; assay: Escape test, Table 3; assay type: in vivo, mouse; settings: 5 min, read-out: % of activity (variation of the number of escapes)
Text: The products of the invention were always administered orally in 6% gum base.
The notation NS signifies that the difference between the results noted for the product and the results noted for the excipient alone is not significant at the threshold 0.05 according to the Student t Test.

despair = assay: Test of despair (Porsolt), Table 8; assay type: in vivo; settings: oral
Text: (§1) The psychotropic profile of the present invention products has been characterized with the animals in numerous tests some of whose results are shown hereinafter. The products of the invention were always administered orally in 6% gum base.
(§2) Certain tests made it possible to show antidepressive activities. These are tests of antagonism to the effects of reserpine, oxotremorine (according to Everett G. M. et al, Science, 1956, 124, 79 and Levy J. et al, Therapie 1965, 20, 265) and to despair (according to Porsolt P. D. et al, Eur. J. Pharmacol., 1978, 47, 379-91).
Test of despair: % of antagonism as a function
of the dose administered orally and expressed

[2] = system: trembling induced by oxotremorine; assay: Antagonism of trembling induced by oxotremorine, Table 7; assay type: in vivo; settings: po, read-out: % of inhibition of trembling induced by oxotremorine
Text: as §1, §2
% of inhibition of trembling induced by
oxotremorine as a function of the dose
(§3) administered expressed in mg/kg

[3] = Oral toxicity (mortality) in the mouse, Table 1; assay type: in vivo; settings: mouse, in vivo, po, Swiss mice, 14 days
Protocol: (§4) The mortality percentages caused by the products of the present invention administered orally to Swiss mice are shown in Table 1. The animals, free of specific pathological organism were housed in an air conditioned room from 24 to 48 hours before the start of the experiments. They were divided up into lots of 5 males and 5 females. With the animals unfed for 24 hours, the substances were administered intragastrically in a base of 6% gum arabic in a volume equal to 0.1 ml for 10 g of animal weight. The mortality was recorded at 14 days.
(§5) % of mortality as a function of the dose

[4] = system: salivation induced by pilocarpine; assay: Inhibition of salivation induced by pilocarpine (anticholinergic activity), Table 9; assay type: in vivo; settings: oral
Text: as §1
Certain products manifest an anticholinergic activity evidenced in the inhibition test of salivation induced by pilocarpine (Table 9).
% of inhibition of salivation induced by
pilocarpine as a function of the dose
as §3

[5] = system: ptosis induced by reserpine; assay: Antagonism of ptosis induced by reserpine, Table 6; assay type: in vivo; settings: po, read-out: % of inhibition of ptosis induced by reserpine
Text: as §1, §2
% of inhibition of ptosis induced by reserpine
as a function of the dose administered orally

phenylbenzoquinone (PBQ) = assay: Analgesic activity using phenylbenzoquinone (PBQ) as noxious agent, Table 2; assay type: in vivo, male Swiss mouse; settings: Mus musculus; for inhibition in vivo at 100 mg/kg: read-out: % of analgesic activity, 100 mg/kg, male Swiss mouse, PBQ; for inhibition in vivo at 200 mg/kg: read-out: % of analgesic activity, 200 mg/kg, male Swiss mouse, PBQ
Protocol: The analgesic activity was determined with the male Swiss mouse using phenylbenzoquinone (PBQ) (a variation of the method of Siegmund et al, Proc. Soc. Exp. Med., […], 95, 729-31) as the noxious agent. Twenty-eightminutes after having administered the test products in a suspension in a 6% gum base, the PBQ solution was injected. The mice were then observed ca. 5 mn. for the next five minutes.
% of analgesic activity as a function of
the dose expressed in mg/kg

[6] = system: number of displacements of the animal; assay: Four plates test (anxiolytic activity), Table 5; assay type: in vivo; settings: oral, mouse
Text: as §1
A certain number of products manifest an anxiolytic activity evidenced in the test with the four plates with the mouse (Table 5).
% of increase in the number of displacements of the
animal as a function of the dose expressed in mg/kg

Swiss mice = assay: Oral toxicity (mortality) in the mouse, Table 1; assay type: in vivo; settings: 1000 mg/kg, 14 days, 20160 min
Protocol: as §4, §5

catalepsy = assay: Catalepsy; assay type: in vivo; settings: 400 and 600 mg/kg
[7] = system: stereotype induced by apomorphine; assay: Antagonism of the stereotype induced by apomorphine, Table 4; assay type: in vivo
Text: as §1
% of activity vis-a-vis the stereotype
induced by apomorphine as a function of the
administered dose expressed in mg/kg

CN(C)CCc1ccccc1N=Cc1cccnc1 [COR 01 184]
change in vivo at 5 mg/kg ([1]; 5 mg/kg, oral, mouse, 5 minutes): -34%
change in vivo at 10 mg/kg ([1]; 10 mg/kg, oral, mouse, 5 minutes): -26%
change in vivo at 25 mg/kg ([1]; 25 mg/kg, oral, mouse, 5 minutes): -23%
change in vivo at 50 mg/kg ([1]; 50 mg/kg, oral, mouse, 5 minutes): -34%
change in vivo at 100 mg/kg ([1]; 100 mg/kg, oral, mouse, 5 minutes): -47%
change in vivo at 200 mg/kg ([1]; 200 mg/kg, oral, mouse, 5 minutes): -46%
Test of despair: % of antagonism (despair; 100 mg/kg): -20%
Test of despair: % of antagonism (despair; 200 mg/kg): -18%
change in vivo at 25 mg/kg [2]: -20%
change in vivo at 50 mg/kg [2]: 0%
change in vivo at 100 mg/kg [2]: -22%
change in vivo at 200 mg/kg [2]: -17%
mortality at 336 h ([3]; 1500 mg/kg): 0%
mortality at 336 h ([3]; 2000 mg/kg): 30%
% of inhibition of salivation induced by pilocarpine ([4]; 200 mg/kg): -23%
change in vivo at 50 mg/kg [5]: -13%
change in vivo at 100 mg/kg [5]: -39%
change in vivo at 200 mg/kg [5]: -34%
inhibition in vivo at 50 mg/kg (phenylbenzoquinone (PBQ); read-out: % of analgesic activity, 50 mg/kg, male Swiss mouse, PBQ): 34%
inhibition in vivo at 100 mg/kg (phenylbenzoquinone (PBQ)): 44%
inhibition in vivo at 200 mg/kg (phenylbenzoquinone (PBQ)): 55%
% of increase in the number of displacements of the animal ([6]; 1.5 mg/kg): +89%
% of increase in the number of displacements of the animal ([6]; 3 mg/kg): +73%
% of increase in the number of displacements of the animal ([6]; 5 mg/kg): +56%
% of increase in the number of displacements of the animal ([6]; 10 mg/kg): +61%

CN(C)CCc1cc2c(cc1N=Cc1cccnc1)OCO2 [COR 01 170, 6-dimethylaminoethyl N-(pyridylidene-3)-1,3-benzodioxole-5-ylamine]
change in vivo at 100 mg/kg ([1]; Mus musculus, po): -32%
change in vivo at 200 mg/kg ([1]; Mus musculus, po): -59%
Test of despair: % of antagonism (despair; 50 mg/kg): -39%
Test of despair: % of antagonism (despair; 100 mg/kg): -39%
Test of despair: % of antagonism (despair; 200 mg/kg): -33%
change in vivo at 50 mg/kg [2]: -40%
change in vivo at 100 mg/kg [2]: -50%
change in vivo at 200 mg/kg [2]: -78%
% of mortality (Swiss mice): 0%
mortality at 336 h ([3]; 1500 mg/kg): 100%
% of inhibition of salivation induced by pilocarpine ([4]; 100 mg/kg): -18%
% of inhibition of salivation induced by pilocarpine ([4]; 200 mg/kg): -57%
inhibition in vivo at 100 mg/kg (phenylbenzoquinone (PBQ)): 30%
inhibition in vivo at 200 mg/kg (phenylbenzoquinone (PBQ)): 39%
% of increase in the number of displacements of the animal ([6]; 25 mg/kg): +18%
% of increase in the number of displacements of the animal ([6]; 40 mg/kg): +57%
% of increase in the number of displacements of the animal ([6]; 50 mg/kg): +36%
% of increase in the number of displacements of the animal ([6]; 60 mg/kg): +69%
% of increase in the number of displacements of the animal ([6]; 75 mg/kg): +72%

CN(C)CCc1cc2c(cc1N=CC=Cc1ccccc1)OCO2 [COR 01 176]
change in vivo at 0.5 mg/kg ([1]; Mus musculus, po): -29%
change in vivo at 1 mg/kg ([1]; Mus musculus, po): -40%
change in vivo at 3 mg/kg ([1]; Mus musculus, po): -39%
change in vivo at 5 mg/kg ([1]; Mus musculus, po): -33%
change in vivo at 25 mg/kg ([1]; Mus musculus, po): -32%
change in vivo at 50 mg/kg ([1]; Mus musculus, po): -37%
change in vivo at 100 mg/kg ([1]; Mus musculus, po): -33%
change in vivo at 200 mg/kg ([1]; Mus musculus, po): -43%
catalepsy (catalepsy): slight catalepsy
change in vivo at 50 mg/kg [2]: -40%
change in vivo at 100 mg/kg [2]: -50%
change in vivo at 200 mg/kg [2]: -20%
mortality at 336 h ([3]; 1000 mg/kg): 0%
% of activity vis-a-vis the stereotype induced by apomorphine ([7]; 200 mg/kg, oral): -64%
antagonism vis-a-vis the stereotype with apomorphine ([7]; in words): manifest an antagonism
inhibition in vivo at 100 mg/kg (phenylbenzoquinone (PBQ)): 23%
inhibition in vivo at 200 mg/kg (phenylbenzoquinone (PBQ)): 39%
% of increase in the number of displacements of the animal ([6]; 3 mg/kg): +101%
% of increase in the number of displacements of the animal ([6]; 5 mg/kg): +117%
% of increase in the number of displacements of the animal ([6]; 10 mg/kg): +72%
% of increase in the number of displacements of the animal ([6]; 20 mg/kg): +72%
% of increase in the number of displacements of the animal ([6]; 25 mg/kg): +66%
